Key:
[1] = target: T1, BChE (EC 3.1.1.8) from human (Homo sapiens, UniProt P06276); test: human BChE inhibition assay, Ellman's method; assay type: biochemical; settings: mean ± SEM, read-out: huBChE IC50
T1 construct: purchased Sigma-Aldrich
Experimental: ; The inhibitory activities of the target compounds towards AChE (from Electrophorus electricus (electric eeAChE, Sigma-Aldrich) and horse serum BChE (eqBChE, Sigma-Aldrich) or human AChE – huAChE; human BuChE – huBuChE (huAChE, huBuChE, Sigma-Aldrich) were measured by Ellman’s method. In 96-well plates, a mixture of phosphate buffer (0.1 M, pH 8.0, […]), 5,5′-dithiobis-2-nitrobenzoic acid (DTNB, 60 µL), acetylcholinestrase or butyrylcholinesterase (20 µL, 5 IU/mL) and different concentration of the compound solution (30 µL) was pre-incubated for 5 min followed by the addition of the substrate (acetylthiocholine iodide or butyrylthiocholine iodide, 20 µL). Changes in absorbance were measured at 412 nm by using microplate reader (Thermo, Varioskan Flash 3001, USA). The measurement of each concentration for each compound was detected in triplicate. GraphPad Prism 6.0 (GraphPad Software, Inc., La Jolla, CA) was used for data processing. The inhibition curve was fitted by plotting percentage enzyme activity (100% for the reference) versus the logarithm of the concentration of tested compound. The half-maximal inhibitory concentration (IC50) values were calculated according to the inhibition curve and the data were shown in the layout of mean ± SEM by GraphPad Prism 6.0.

[2] = test system: liver; test: Liver histopathological study (HE staining); settings: 36 h after administration, compared to control group
Text: Figure 7. […] HE staining, original magnification ×200.

[3] = DPPH radical scavenging activity; settings: at 1 mM
Experimental: Compounds 15b and 15j were selected to be evaluated for their 1,1-diphenyl-2-picrylhydrazyl radical scavenging activity (DPPH) compared with trolox as reference compound[12].
(§1) Corresponding Authors: clarissa0710@163.com (Y. Chen); sunhaopeng@163.com (H. P.
(§2) 1.1. Inhibition of self-induced Aβ1–42 aggregation
(§3) Inhibitory effect of the compounds on self -induced Aβ1–42 aggregation was determined through a thioflavin T (ThT)-(T3516, Sigma-Aldrich) binding assay.
(§4) Firstly, aliquots of 2 μL of Aβ 1–42 (AS-64129–05 Anaspec Inc.) containing 2 mg/mL HFIP (1,1,1,3,3,3-hexafluoro-2-propanol, 52517 (Sigma-Aldrich) were stocked in DMSO).
(§5) Then, they were diluted with 0.215M sodium phosphate buffer (pH 8.0) to the final concentration of 500 μM. Test compounds were dissolved in DMSO and then prepared at a concentration of 50 μM by the buffer. Resveratrol was used as a positive control. […]
(§6) Fluorescence intensity was read (excitation wavelength 450 nm, emission wavelength 485 nm) on a microplate reader (Thermo, Varioskan Flas h 3001, USA).
(§7) The calculation of the inhibitory rate of Aβ 1–42 self-induced aggregation was performed using the following equation: (1 -IFi/IFc) × 100 %. IFi and IFc were the fluorescence intensities measured in the presence and absence of inhibitors, respe ctively, after subtracting the background fluorescence of the 5mM ThT solution. Each compound was measured in triplicate. […]

[4] = target: T2, eeAChE (Electrophorus electricus, UniProt O42275); test: Kinetic study of AChE inhibition (Lineweaver–Burk); assay type: biochemical; settings: Lineweaver–Burk plot, 0, 2, 5, 10, 20 µM
T2 construct: purchased Sigma-Aldrich
T2 sequence (O42275 24-633): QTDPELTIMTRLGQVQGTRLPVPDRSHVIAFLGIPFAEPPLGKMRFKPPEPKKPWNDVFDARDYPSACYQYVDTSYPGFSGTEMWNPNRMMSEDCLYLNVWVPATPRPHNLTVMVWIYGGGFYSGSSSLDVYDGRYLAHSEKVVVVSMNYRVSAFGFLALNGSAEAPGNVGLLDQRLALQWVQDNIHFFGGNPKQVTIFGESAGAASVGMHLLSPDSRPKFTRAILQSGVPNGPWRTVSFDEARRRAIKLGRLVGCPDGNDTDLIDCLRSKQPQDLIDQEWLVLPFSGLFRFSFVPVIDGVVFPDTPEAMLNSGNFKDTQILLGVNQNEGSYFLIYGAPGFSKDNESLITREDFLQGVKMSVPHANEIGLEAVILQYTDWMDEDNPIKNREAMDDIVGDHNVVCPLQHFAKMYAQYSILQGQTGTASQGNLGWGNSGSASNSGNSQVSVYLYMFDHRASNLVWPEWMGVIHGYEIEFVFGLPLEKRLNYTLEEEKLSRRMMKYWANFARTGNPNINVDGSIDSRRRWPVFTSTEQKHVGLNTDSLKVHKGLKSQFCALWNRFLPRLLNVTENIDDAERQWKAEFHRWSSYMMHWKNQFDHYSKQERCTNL
Experimental: (§8) In each case, the kinetic type of enzyme inhibition was obtained through the modified Ellman’s method and Lineweaver–Burk secondary plots.
(§9) Figure 2. […] (B) Lineweaver–Burk plot for the inhibition of eqBChE by compound 15j at different concentrations of substrate.
Kinetic studies were performed in the same manner as the determination of ChEs inhibition, while the substrate (ATC/BTC) was used in concentrations of 90, 150, 226, 452, and 904 µM. The concentrations of test compounds were set to 0, 2, 5, 10, and 20 µM for 15b and 0, 0.5, 1, 2, and 5 µM for 15j. The enzymatic reaction was extended to 7 min for eeAChE and eqBuChE before the determination of the absorption. Vmax and Km values of the Michaelis–Menten kinetics were calculated by nonlinear regression from substrate-velocity curves using GraphPad Prism 6.0. Linear regression was used for fitting the Lineweaver–Burk plots.

[5] = target: T3, Aβ1–42 (Homo sapiens, UniProt P05067); test: Inhibition of self-induced Aβ1–42 aggregation (thioflavin T); assay type: biochemical; settings: under 50 µM, ThT fluorometric assay
T3 construct: self-induced Aβ1–42 aggregation; purchased Anaspec Inc. AS-64129–05
T3 sequence (P05067 672-713): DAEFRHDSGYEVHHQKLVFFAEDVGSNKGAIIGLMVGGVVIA
Experimental: Compounds 15b and 15j were evaluated for their inhibitory capacity on self-induced Aβ1–42 aggregation based on a thioflavin T-based fluorometric assay. […]
as §1, §2, §3, §4, §5, §6, §7

[6] = test system: PC-12 cells; test: In vitro cell toxicity on PC-12 cell line (MTT); assay type: cell-based; settings: 10, 20, 30 and 50 µM, 24 h
Text: We focussed on the cell toxicity of the synthesised compounds. Compounds 15b and 15j were selected as representative compounds for the evaluation of their potential cytotoxic effects.
Figure 4. (A) In vitro cell toxicity of 15b and 15j on PC-12 cell line. (B) In vitro hepatotoxicity of 15b and 15j on HepG2 cell line. Data were expressed as mean ± SD (n = 3).
PC12 cell and HepG2 cell (human hepatocellular liver carcinoma cell line purchased from Institute of Materia of Chinese Academy of Medical Science), were grown in DMEM supplemented with 10% FBS at 37 °C in a humidified atmosphere containing 5% CO2. For the experiments, cells (6 × 10^3 cells/well) were seeded in 96-well plate in complete medium. […]

[7] = target: T4, eqBChE (Equus caballus, UniProt P81908); test: Kinetic study of BChE inhibition (Lineweaver–Burk); assay type: biochemical; settings: Lineweaver–Burk plot, 0, 0.5, 1, 2, 5 µM
T4 construct: horse serum BChE (eqBChE, Sigma-Aldrich); purchased Sigma-Aldrich; host or cells: horse serum
T4 sequence (P81908 whole entry): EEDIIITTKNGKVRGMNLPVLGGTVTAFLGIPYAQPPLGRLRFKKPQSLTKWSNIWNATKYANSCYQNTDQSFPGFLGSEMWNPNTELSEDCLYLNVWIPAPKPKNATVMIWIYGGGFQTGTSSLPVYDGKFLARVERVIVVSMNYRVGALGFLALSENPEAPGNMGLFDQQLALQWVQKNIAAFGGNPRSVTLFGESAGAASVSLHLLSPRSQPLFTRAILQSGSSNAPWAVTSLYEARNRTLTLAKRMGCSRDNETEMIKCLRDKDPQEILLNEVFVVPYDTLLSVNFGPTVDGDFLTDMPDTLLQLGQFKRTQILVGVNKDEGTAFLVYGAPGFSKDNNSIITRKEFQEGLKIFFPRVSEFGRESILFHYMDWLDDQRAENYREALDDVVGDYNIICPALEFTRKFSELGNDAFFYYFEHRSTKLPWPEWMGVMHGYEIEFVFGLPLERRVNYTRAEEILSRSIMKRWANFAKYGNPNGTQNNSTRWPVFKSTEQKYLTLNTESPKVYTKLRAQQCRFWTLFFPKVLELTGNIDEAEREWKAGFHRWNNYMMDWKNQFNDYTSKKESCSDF
Experimental: as §8, §9
[…]. The enzymatic reaction was extended to 7 min for eeAChE and eqBuChE before the determination of the absorption. Vmax and Km values of the Michaelis–Menten kinetics were calculated by nonlinear regression from substrate-velocity curves using GraphPad Prism 6.0. Linear regression was used for fitting the Lineweaver–Burk plots.

T1 sequence (P06276 29-602): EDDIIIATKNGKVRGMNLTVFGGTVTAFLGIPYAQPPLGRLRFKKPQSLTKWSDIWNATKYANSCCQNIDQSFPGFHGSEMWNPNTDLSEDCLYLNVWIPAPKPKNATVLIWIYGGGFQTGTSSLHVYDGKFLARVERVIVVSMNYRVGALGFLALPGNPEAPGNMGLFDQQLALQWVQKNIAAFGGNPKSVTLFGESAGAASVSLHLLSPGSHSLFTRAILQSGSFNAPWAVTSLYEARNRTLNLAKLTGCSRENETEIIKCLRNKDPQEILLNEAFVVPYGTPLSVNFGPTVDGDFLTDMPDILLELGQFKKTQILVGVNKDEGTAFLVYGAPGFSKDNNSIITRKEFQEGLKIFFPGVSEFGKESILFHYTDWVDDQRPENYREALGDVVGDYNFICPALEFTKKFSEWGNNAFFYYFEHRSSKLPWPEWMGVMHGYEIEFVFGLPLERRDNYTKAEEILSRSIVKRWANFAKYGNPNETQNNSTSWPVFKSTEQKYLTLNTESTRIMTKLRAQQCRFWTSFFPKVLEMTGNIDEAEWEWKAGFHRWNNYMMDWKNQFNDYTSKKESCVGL

SMILES | IC50 [1] [nM] | morphologic changes in liver [2] | DPPH inhibitory rate [3] [%] | kinetic type of AChE inhibition [4] | inhibition of self-induced Aβ1–42 aggregation [5] | cytotoxicity to PC-12 cells [6] | kinetic type of BChE inhibition [7]
Cc1ccccc1CN1CCC(CNS(=O)(=O)c2ccc3c(c2)n(C)c(=O)n3C)CC1 [Compound 15b, 1,3-dimethyl-N-((1–(2-methylbenzyl)piperidin-4-yl)methyl)-2-oxo-2,3-dihydro-1H-benzo[d]imidazole-5-sulphonamide] | 1330 ± 550 | did not result in remarkable morphologic changes in liver | 12.2 | competitive | no inhibitory activities | no cytotoxicity | –
Cn1c(=O)n(C)c2cc(S(=O)(=O)NCC3CCN(Cc4cccc(Br)c4)CC3)ccc21 [Compound 15j, N-((1–(3-bromobenzyl)piperidin-4-yl)methyl)-1,3-dimethyl-2-oxo-2,3-dihydro-1H-benzo[d]imidazole-5-sulphonamide] | 660 ± 220 | did not result in remarkable morphologic changes in liver | 6.3 | – | no inhibitory activities | no cytotoxicity | competitive

Reference: PMC6968383, “Design, synthesis, in vitro and in vivo evaluation of benzylpiperidine-linked 1,3-dimethylbenzimidazolinones as cholinesterase inhibitors against Alzheimer’s disease” (Journal of Enzyme Inhibition and Medicinal Chemistry, 2019)
